The source of these data is patent publication US20250064777A1, “PHARMACEUTICAL COMPOSITION FOR TREATMENT OF CASTRATION-RESISTANT PROSTATE CANCER COMPRISING BRUCEANTIN AND NANOPARTICLES” (SAMSUNG LIFE PUBLIC WELFARE FOUNDATION, priority 2021, published 2025).

Data set [1] in a line: Solubility of nano-bruceantin in aqueous solution (visual examination, UV-Vis spectroscopy). Format: physicochemical.
Data set [2] concerns nude mice. Put plainly: Short-term toxicity of bruceantin and nano-bruceantin. Format: in vivo. Particulars: 5 mg/kg daily for 7 days, FIG. 3. As for the experimental part: (§1) As Experimental Animals, 6-Week-Old Male Nude Mice (Orient Bio, Korea) were used.
Mice were divided into a nanoparticle-administered group (nano-Veh), a phosphate buffer saline-administered group (PBS), a nano-bruceantin-administered group (nano-BCT), and a bruceantin-administered group (free-BCT). The nano-BCT group was orally administered nano-bruceantin at 5 mg/kg daily for 7 days, and the free-BCT group was orally administered bruceantin at 5 mg/kg daily for 7 days.

Data set [3] deals with nude mice. Briefly: Long-term toxicity of bruceantin and nano-bruceantin. Format: in vivo. To be noted: 2 mg/kg every two days for 17 days, FIG. 4. As for the experimental part:
as §1
The nano-BCT group was orally administered nano-bruceantin at 2 mg/kg every two days for 17 days, and the free-BCT group was orally administered bruceantin at 2 mg/kg every two days for 17 days.

Data set [4] relates to 22RV1 cells. Briefly: Cell growth inhibition assay. Format: cell-based. To be noted: concentration of 10 nM or more, FIG. 5. As for the experimental part:
(§2) Castration-resistant prostate cancer cell line 22RV1 cells were cultured with RPMI-1640 (Welgene) medium containing 10% fetal bovine serum (FBS) (Welgene) and 1% penicillin/streptomycin.
(§3) Castration-resistant prostate cancer cell line 22RV1 cells were treated with various concentrations of each of bruceantin (BCT), nano-bruceantin 1 (nano-BCT #1), and nano-bruceantin 2 (nano-BCT #2) and subjected to cell growth inhibition assay and colony formation assay. Reporter gene assay was performed by transfecting 22RV1 cells with an MMTV-LUC reporter, which can measure the transcriptional activities of AR and AR-V7, and treating the cells with various concentrations of each of BCT, nano-BCT #1, and nano-BCT #2 depending on the presence or absence of the androgen dihydrotestosterone (DHT) (DHT+, AR transcriptional activity measurement condition; DHT−, AR-V7 transcriptional activity measurement condition). Immunoblotting was performed by treating 22RV1 cells with various concentrations of each of BCT and nano-BCT, extracting protein from the cells, electrophoresise protein on 4 to 12% SDS-PAGE gel, and transferring the electrophoresed protein to a PVDF membrane, followed by incubation with antibody.

Data set [5] concerns 22RV1 cells. Put plainly: Colony formation assay. Type of data set: cell-based. Particulars: various concentrations, FIG. 6. As for the experimental part:
as §2, §3

The test system of data set [6] is AR. Briefly: MMTV-LUC reporter gene assay, DHT+ (AR transcriptional activity). Particulars: 22RV1 cells, FIG. 7. Format: cell-based. As for the experimental part:
as §2, §3

For data set [7], the system named is AR-V7. Briefly: MMTV-LUC reporter gene assay, DHT− (AR-V7 transcriptional activity). Type of data set: cell-based. To be noted: 22RV1 cells, FIG. 7. As for the experimental part: as §2, §3
(In a reporter assay the amount or activity of a reporter protein is the signal.)

Data set [8] relates to AR. Briefly: Immunoblotting for AR in 22RV1 cells. Format: cell-based. To be noted: various concentrations, FIG. 8. The procedure: as §2, §3
On the technique in general: In western blotting, separated proteins are transferred to a membrane and probed.

For data set [9], the system named is AR-V7. Briefly: Immunoblotting for AR-V7 in 22RV1 cells. Type of data set: cell-based. To be noted: various concentrations, FIG. 8. The procedure:
as §2, §3

Another data set concerns CWR22RV1. Put plainly: CWR22RV1 xenograft mice: tumor volume and bioluminescence. Format: in vivo. Particulars: oral, 2 mg/kg every two days for 19 days. The procedure: Castration-resistant prostate cancer cell line CWR22RV1 was purchased from ATCC (USA), and xenograft mice were constructed by subcutaneously injecting CWR22RV1 into nude mice.
The xenograft mice were divided into a nanoparticle-treated group (nano-Veh), a control group (free-Veh), a nano-bruceantin-treated group (nano-BCT), and a bruceantin-treated group (free-BCT). The nano-BCT group and the free-BCT group were orally administered nano-bruceantin and bruceantin, respectively, at 2 mg/kg every two days for 19 days. Thereafter, tumor volume and bioluminescence were measured for each treated group.

Data set [10] has as its system AR/AR-V7. Particulars: castration-resistant prostate cancer cell line 22RV1 cells; KR 10-2020-0139625; cited from earlier work.
Data set [11] concerns AR/AR-V7. To be noted: androgen-dependent LNCaP cells; KR 10-2020-0139625; cited from earlier work.

Like-named read-outs stand apart in the source and are kept apart here.

With `COC(=O)[C@@]12OC[C@]34[C@H]([C@@H](O)[C@@H]1O)[C@@]1(C)CC(=O)C(O)=C(C)[C@@H]1C[C@H]3OC(=O)[C@H](OC(=O)/C=C(\C)C(C)C)[C@@H]24` [bruceantin], in data set [1], the solubility (in general, the concentration that dissolves in the medium under given conditions) was less than 100 µg/mL. Moreover, in the data set with nude mice [2], the “side effects upon short-term oral administration” value is “accompanied by acute side effects such as exophthalmos, sudden death, and weight loss”. Moreover, the “side effects upon long-term oral administration” value with nude mice [3] was “accompanied by side effects such as exophthalmos, sudden death, and weight loss”. Further, in the data set on 22RV1 cells [4], the “cell growth inhibitory effect, compared between groups” value was “similar”. Further, in the data set on 22RV1 cells [5], the “colony formation, compared between groups” value was “no significant difference”. In addition, the “AR transcriptional activity (reporter gene), compared between groups” value in the data set on AR [6] was “no significant difference”. Also, in the data set with AR-V7 [7], the “AR-V7 transcriptional activity (reporter gene), compared between groups” value is “no significant difference”. Moreover, the “AR protein (immunoblotting)” value with AR [8] is given as “decreased”. For the same compound, in the data set on AR-V7 [9], the “AR-V7 protein (immunoblotting)” value is “decreased”. Also, the tumor volume result in the data set with CWR22RV1 (FIG. 9) is given as “decrease in tumor volume was from day 13”. In addition, the bioluminescence result in the data set on CWR22RV1 (FIG. 10) is on record as “decrease in bioluminescence”. For the same compound, the “transcriptional activity of AR/AR-V7” value with AR/AR-V7 [10] was “simultaneously and strongly inhibit”; in the data set with AR/AR-V7 [11] it was “simultaneously and strongly inhibit”.
